Measured values reported in patent publication US20110104702A1, “Methods for Predicting Tumor Response to Chemotherapy and Selection of Tumor Treatment” (NATIONAL UNIVERSITY HOSPITAL, priority 2008, published 2011).

Columns and labels:
cT3-T4 breast tumors = assay: Independent dataset: four cycles of pre-operative single agent docetaxel, pathological response; format: in vivo, human
Source text: Next, we applied the 90-supergene panels for pathological response to the original cohort using unsupervised hierarchical clustering, and found, expectedly, the predictors to be highly accurate; the division yielded groups with different PFS, though not statistically significant (Table 1). To validate the pathological response signatures further, we applied them, using SVM, in an independent set of 18 patients treated with four cycles of neoadjuvant three-weekly single agent docetaxel prior to surgery, who had tumor biopsy before and 3 weeks after one chemotherapy cycle. Pathological response definition was similar to our original cohort. Consistent with the findings for the PFS predictors, T2 outperformed T1 signatures, with the AUC of ROC being 0.631 (95% CI 0.350-0.912) for T2 compared to 0.462 (95% CI 0.190-0.733) and 0.446 (95% Cl 0.161-0.731) for TΔ and T1 respectively. T2 signatures accurately identified 77% of poor pathological responders, compared to 54% for both T1 and TΔ (FIG. 2c-d).
An independent dataset comprising of 18 breast cancer patients treated with pre-operative chemotherapy followed by surgery as part of another clinical protocol at our institution was used to validate the gene expression signatures that predict for pathological response. Validation was performed using SVM. In brief, patients from this independent dataset had cT3-T4 breast tumors and were treated with four cycles of pre-operative single agent docetaxel every three weeks. […] Patients underwent lumpectomy or mastectomy and axillary clearance after chemotherapy, and were classified as good (5/18) and poor (13/18) pathological responders using the same criteria as described in our primary cohort. This dataset was not used to validate the PFS signatures as the median follow-up was short at 18.5 months, and only 5/18 had progressed at the time of analysis.

[1] = test system: locally advanced breast cancers; conditions: weekly doxorubicin 14 mg/m^2 for 16 weeks, n=20; cited from earlier work
[2] = four cycles of docetaxel every three weeks, then surgery, n=18

| SMILES | good pathological responders (cT3-T4 breast tumors; [2]) | poor pathological responders (cT3-T4 breast tumors; [2]) | patients progressed at the time of analysis (cT3-T4 breast tumors; median follow-up 18.5 months) | median relapse-free survival [1] [months] | patients relapsed [1] |
| --- | --- | --- | --- | --- | --- |
| CC(=O)O[C@@]12CO[C@@H]1C[C@H](O)[C@@]1(C)C(=O)[C@H](O)C3=C(C)[C@@H](OC(=O)[C@H](O)[C@@H](NC(=O)OC(C)(C)C)c4ccccc4)C[C@@](O)([C@@H](OC(=O)c4ccccc4)[C@H]21)C3(C)C [docetaxel] | 5/18 | 13/18 | 5/18 |  |  |
| COc1cccc2c1C(=O)c1c(O)c3c(c(O)c1C2=O)C[C@@](O)(C(=O)CO)C[C@@H]3O[C@H]1C[C@H](N)[C@H](O)[C@H](C)O1 [doxorubicin] |  |  |  | 25 | 12/20 |
